{"source": "patent US12144800B2", "about": "(priority 2015, dated 2024)", "key": {"C. perfringens spores [1]": {"test_system": "C. perfringens spores", "assay": "microbe, parasite or virus in culture", "conditions": "Clostridium perfringens, read-out: IC50, inhibition of C. perfringens spore germination"}, "C. perfringens spores [2]": {"test_system": "C. perfringens spores", "format": "cell-based, Clostridium perfringens", "conditions": "for induction of spore germination by bile salt in the presence of amino acids: BA pathway; for triggering of spore germination by detergent: even in the presence of excess L-alanine"}, "C. perfringens spores [3]": {"test_system": "C. perfringens spores", "format": "cell-based, Clostridium perfringens", "conditions": "for effect of added salt on AA pathway response / effect of added salt on BA germination pathway: potassium phosphate or sodium phosphate buffer; for effect of added salt on AA pathway response / effect of added salt on BA pathway / effect of added salt on BA germination pathway: 150 mM salt; for effect of added salt on BA pathway: spores resuspended in sodium phosphate buffer"}, "C. perfringens spores [4]": {"test_system": "C. perfringens spores", "conditions": "with L-alanine, in place of L-phenylalanine"}, "C. perfringens spores [5]": {"test_system": "C. perfringens spores", "conditions": "spore germination inhibition"}, "C. perfringens strains": {"test_system": "C. perfringens strains", "format": "cell-based, Clostridium perfringens"}, "[6]": {"conditions": "in the presence of theobromine, strains 1936, 1473, 1882"}}, "note": "Where two headings read alike, the source gives them in different places.", "data": [{"molecule": "CSc1nc2ccccc2s1", "note": "[2-MTB, 2-methylthiobenzothiazole]", "values": [{"measurement": "IC50", "setting": "C. perfringens spores [1]", "value": 74, "unit": "µM"}]}, {"molecule": "C[C@H](CCC(=O)O)[C@H]1CC[C@H]2[C@@H]3[C@H](O)C[C@@H]4C[C@H](O)CC[C@]4(C)[C@H]3C[C@H](O)[C@]12C", "note": "[Cholate]", "values": [{"measurement": "induction or inhibition of spore germination in the presence of L-alanine", "setting": "C. perfringens spores [2]", "value": "did not induce or inhibit"}]}, {"molecule": "C[C@H](CCC(=O)NCC(=O)O)[C@H]1CC[C@H]2[C@@H]3[C@H](O)C[C@@H]4C[C@H](O)CC[C@]4(C)[C@H]3C[C@H](O)[C@]12C", "note": "[Glycocholate]", "values": [{"measurement": "induction of spore germination by bile salt in the presence of amino acids", "setting": "C. perfringens spores [2]", "value": "induced C. perfringens spore germination"}]}, {"molecule": "[Br-].[K+]", "note": "[KBr]", "values": [{"measurement": "effect of added salt on AA pathway response", "setting": "C. perfringens spores [3]", "value": "did not affect"}, {"measurement": "effect of added salt on BA pathway", "setting": "C. perfringens spores [3]", "value": "induced the BA pathway"}]}, {"molecule": "[Cl-].[K+]", "note": "[KCl]", "values": [{"measurement": "effect of added salt on AA pathway response", "setting": "C. perfringens spores [3]", "value": "did not affect"}, {"measurement": "effect of added salt on BA pathway", "setting": "C. perfringens spores [3]", "value": "induced the BA pathway"}]}, {"molecule": "N[C@@H](Cc1ccc(O)cc1)C(=O)O", "note": "[L-tyrosine]", "values": [{"measurement": "germination rate slower than with L-phenylalanine", "setting": "C. perfringens spores [4]", "value": "more than 50%"}]}, {"molecule": "COc1nc2ccccc2s1", "note": "[MOB, 2-methoxy benzothiazole]", "values": [{"measurement": "inhibitory concentration compared with other analogs", "setting": "C. perfringens spores [5]", "value": "approximately ten times lower than other analogs"}, {"measurement": "IC50", "setting": "C. perfringens spores [1]", "value": 98, "unit": "µM"}]}, {"molecule": "[Br-].[Na+]", "note": "[NaBr]", "values": [{"measurement": "effect of added salt on AA pathway response", "setting": "C. perfringens spores [3]", "value": "did not affect"}, {"measurement": "effect of added salt on BA germination pathway", "setting": "C. perfringens spores [3]", "value": "did not affect"}]}, {"molecule": "[Cl-].[Na+]", "note": "[NaCl]", "values": [{"measurement": "effect of added salt on AA pathway response", "setting": "C. perfringens spores [3]", "value": "did not affect"}, {"measurement": "effect of added salt on BA germination pathway", "setting": "C. perfringens spores [3]", "value": "did not affect"}]}, {"molecule": "CCCCCCCCCCCCOS(=O)(=O)[O-].[Na+]", "note": "[SDS]", "values": [{"measurement": "triggering of spore germination by detergent", "setting": "C. perfringens spores [2]", "value": "Neither detergent was able to trigger"}]}, {"molecule": "C[C@H](CCC(=O)O)[C@H]1CC[C@H]2[C@@H]3[C@H](O)C[C@@H]4C[C@H](O)CC[C@]4(C)[C@H]3CC[C@]12C", "note": "[chenodeoxycholate]", "values": [{"measurement": "induction or inhibition of spore germination in the presence of L-alanine", "setting": "C. perfringens spores [2]; FIG. 3B", "value": "did not induce or inhibit"}]}, {"molecule": "O=C([O-])O.[K+]", "note": "[potassium bicarbonate]", "values": [{"measurement": "effect of added bicarbonate on germination rate", "setting": "C. perfringens spores [3]", "value": "increased germination rate"}]}, {"molecule": "OC[C@H]1O[C@H](OC[C@H]2O[C@H](O[C@]3(CO)O[C@H](CO)[C@@H](O)[C@@H]3O)[C@H](O)[C@@H](O)[C@@H]2O)[C@H](O)[C@@H](O)[C@H]1O", "note": "[raffinose]", "values": [{"measurement": "sporulation with the carbon source", "setting": "C. perfringens strains; 0.5% carbon source in solid medium", "value": "preferred carbon source"}]}, {"molecule": "O=C([O-])O.[Na+]", "note": "[sodium bicarbonate]", "values": [{"measurement": "effect of added bicarbonate on germination rate", "setting": "C. perfringens spores [3]", "value": "increased germination rate"}]}, {"molecule": "C[C@H](CCC(=O)NCCS(=O)(=O)O)[C@H]1CC[C@H]2[C@@H]3[C@H](O)C[C@@H]4C[C@H](O)CC[C@]4(C)[C@H]3CC[C@]12C", "note": "[taurochenodeoxycholate]", "values": [{"measurement": "induction of spore germination by bile salt in the presence of amino acids", "setting": "C. perfringens spores [2]", "value": "induced C. perfringens spore germination"}]}, {"molecule": "C[C@H](CCC(=O)NCCS(=O)(=O)O)[C@H]1CC[C@H]2[C@@H]3CC[C@@H]4C[C@H](O)CC[C@]4(C)[C@H]3C[C@H](O)[C@]12C", "note": "[taurodeoxycholate]", "values": [{"measurement": "induction of spore germination by bile salt in the presence of amino acids", "setting": "C. perfringens spores [2]", "value": "induced C. perfringens spore germination"}]}, {"molecule": "Cn1cnc2c1c(=O)[nH]c(=O)n2C", "note": "[theobromine]", "values": [{"measurement": "time at which spores could be detected", "setting": "C. perfringens strains; [6]", "value": "two days after plating"}, {"measurement": "time of maximum sporulation levels", "setting": "C. perfringens strains; [6]", "value": "5-7 days post-plating"}, {"measurement": "effect of theobromine on sporulation level", "setting": "C. perfringens strains; strain 1473", "value": "decreased"}, {"measurement": "Theobromine, effect on sporulation", "setting": "C. perfringens strains; strain 1473, inoculum BHI, peptone #3", "value": "Increases sporulation"}, {"measurement": "Theobromine, effect on sporulation", "setting": "C. perfringens strains; strain 1473, inoculum Thioglycollate, peptone #1", "value": "Reduces sporulation"}, {"measurement": "Theobromine, effect on sporulation", "setting": "C. perfringens strains; strain 1521, inoculum Thioglycollate, peptone #1", "value": "Required for sporulation"}, {"measurement": "effect of theobromine on sporulation level", "setting": "C. perfringens strains; strain 1882", "value": "increased"}, {"measurement": "Theobromine, effect on sporulation", "setting": "C. perfringens strains; strain 1882, inoculum BHI, peptone #2", "value": "Increases sporulation"}, {"measurement": "effect of theobromine on sporulation level", "setting": "C. perfringens strains; strain 1936", "value": "remained unchanged"}, {"measurement": "Theobromine, effect on sporulation", "setting": "C. perfringens strains; strain 1936, inoculum BHI, peptone #1", "value": "No effect on sporulation"}, {"measurement": "Theobromine, effect on sporulation", "setting": "C. perfringens strains; strain 4064, inoculum BHI, peptone #1", "value": "Required for sporulation"}, {"measurement": "Theobromine, effect on sporulation", "setting": "C. perfringens strains; strain 4104, inoculum BHI, peptone #3", "value": "Required for sporulation"}, {"measurement": "Theobromine, effect on sporulation", "setting": "C. perfringens strains; strain 4104, inoculum Thioglycollate, peptone #3", "value": "Required for sporulation"}, {"measurement": "Theobromine, effect on sporulation", "setting": "C. perfringens strains; strain 4121, inoculum Thioglycollate, peptone #2", "value": "Required for sporulation"}, {"measurement": "effect on sporulation times", "setting": "C. perfringens strains; strains 1936, 1473, 1882", "value": "reduced sporulation times"}, {"measurement": "effect of theobromine on sporulation", "setting": "C. perfringens strains; strains 4104, 4064, 1521, 4121, solid media", "value": "only sporulated robustly when theobromine was added"}]}, {"molecule": "Triton-X-100", "values": [{"measurement": "triggering of spore germination by detergent", "setting": "C. perfringens spores [2]", "value": "Neither detergent was able to trigger"}]}, {"molecule": "deoxycholate", "values": [{"measurement": "induction or inhibition of spore germination in the presence of L-alanine", "setting": "C. perfringens spores [2]; FIG. 3B", "value": "did not induce or inhibit"}]}]}
